# From ChEMBL document CHEMBL1130269, “A 3D QSAR study of a series of HEPT analogues: the influence of conformational mobility on HIV-1 reverse transcriptase inhibition” (J Med Chem, 1997)
# Several values for one entry are separate records, joined by “and”; a condition that tells them apart may be missing. Identical values can stand only once.
# Target: Human immunodeficiency virus type 1 reverse transcriptase (Human immunodeficiency virus 1, UniProt Q72547)
# Assay: Inhibitory concentration against HIV-1 reverse transcriptase
row,EC50,Structure (SMILES)
1,3300 nM,Cc1c(Sc2cccc(F)c2)n(COCCO)c(=O)[nH]c1=O
2,22000 nM,COc1cccc(Sc2c(C)c(=O)[nH]c(=O)n2COCCO)c1
3,1300 nM,Cc1c(Sc2cc(Cl)cc(Cl)c2)n(COCCO)c(=O)[nH]c1=O
4,40 nM,CCc1c(Sc2cc(C)cc(C)c2)n(C/C=C/c2cccs2)c(=O)[nH]c1=O
5,2700 nM,CCc1cccc(Sc2c(C)c(=O)[nH]c(=O)n2COCCO)c1
6,4700 nM,C=Cc1c(Sc2ccccc2)n(COCCO)c(=O)[nH]c1=O
7,7300 nM,CC(=O)c1cccc(Sc2c(C)c(=O)[nH]c(=O)n2COCCO)c1
8,12000 nM,Cc1c(Sc2cccc(C(C)(C)C)c2)n(COCCO)c(=O)[nH]c1=O
9,3500 nM,Cc1c(Sc2ccc(C3CCCCC3)cc2)n(COCCO)c(=O)[nH]c1=O
10,100 nM,Cc1c(Sc2ccccc2)n(C/C=C/c2cccnc2)c(=O)[nH]c1=O
11,170 nM,CCc1c(Sc2ccccc2)n(C/C=C/c2ccco2)c(=O)[nH]c1=O
12,82000 nM,Cc1c(Sc2cccc(O)c2)n(COCCO)c(=O)[nH]c1=O
13,5700 nM,Cc1c(Cc2ccccc2)n(COCCO)c(=O)[nH]c1=O
14,4300 nM,O=c1[nH]c(=O)n(COCCO)c(Sc2ccccc2)c1I
15,14 nM,CCc1c(Sc2cc(Cl)cc(Cl)c2)n(COCCO)c(=O)[nH]c1=O
16,8900 nM,Cc1c(Oc2ccccc2)n(COCCO)c(=O)[nH]c1=O
17,5.4 nM,CCOCn1c(Sc2cc(C)cc(C)c2)c(CC)c(=O)[nH]c1=O
18,59 nM,CC(C)c1c(Sc2ccccc2)n(COCCO)c(=S)[nH]c1=O
19,63 nM,CC(C)c1c(Sc2ccccc2)n(COCCO)c(=O)[nH]c1=O
20,5700 nM,Cc1c(Sc2cccc(Br)c2)n(COCCO)c(=O)[nH]c1=O
21,100 nM,CCOCn1c(Sc2ccccc2)c(C2CC2)c(=O)[nH]c1=O
22,5 nM,Cc1cc(C)cc(Sc2c(C(C)C)c(=O)[nH]c(=S)n2COCCO)c1
23,10000 nM,Cc1c(Sc2cccc(I)c2)n(COCCO)c(=O)[nH]c1=O

row,EC50,Structure (SMILES)
1,10000 nM,Cc1c(Sc2cccc(C#N)c2)n(COCCO)c(=O)[nH]c1=O
2,110 nM and 120 nM,CCc1c(Sc2ccccc2)n(COCCO)c(=O)[nH]c1=O
3,45000 nM,Cc1c(Sc2cccc(C(F)(F)F)c2)n(COCCO)c(=O)[nH]c1=O
4,7.8 nM,CCc1c(Sc2cc(C)cc(C)c2)n(COCCO)c(=S)[nH]c1=O
5,290 nM,CCc1c(Sc2ccccc2)n(CCCc2ccccc2)c(=O)[nH]c1=O
6,140000 nM,Cc1c(Sc2ccccc2[N+](=O)[O-])n(COCCO)c(=O)[nH]c1=O
7,91 nM,CCc1c(Sc2ccccc2)n(COCCc2ccccc2)c(=S)[nH]c1=O
8,4000 nM,CCc1c(Sc2ccccc2)n(COC2CCCCC2)c(=O)[nH]c1=O
9,190 nM,CCc1c(Sc2ccccc2)n(C/C=C/c2ccccc2)c(=O)[nH]c1=O
10,80 nM,CCc1c(Sc2ccccc2)n(C/C=C/c2cccs2)c(=O)[nH]c1=O
11,340 nM,CCc1c(Sc2ccccc2)n(CC(C)C)c(=O)[nH]c1=O
12,34000 nM,Cc1c(Sc2cccc([N+](=O)[O-])c2)n(COCCO)c(=O)[nH]c1=O
13,2600 nM,Cc1cccc(Sc2c(C)c(=O)[nH]c(=O)n2COCCO)c1
14,71000 nM,Cc1ccccc1Sc1c(C)c(=O)[nH]c(=O)n1COCCO
15,2500 nM,Cc1c(Sc2ccccc2)n(C/C=C/c2ccccc2)c(=O)[nH]c1=O
16,19000 nM,COc1ccccc1Sc1c(C)c(=O)[nH]c(=O)n1COCCO
17,43 nM,CCc1c(Sc2cc(Cl)cc(Cl)c2)n(COCCO)c(=S)[nH]c1=O
18,40 nM,CCc1c(Sc2cc(C)cc(C)c2)n(C/C=C/c2ccco2)c(=O)[nH]c1=O
19,220000 nM,Cc1ccc(Sc2c(C)c(=O)[nH]c(=O)n2COCCO)cc1
20,7900 nM,COC(=O)c1cccc(Sc2c(C)c(=O)[nH]c(=O)n2COCCO)c1
21,0.6 nM,CCOCn1c(Cc2cc(C)cc(C)c2)c(C(C)C)c(=O)[nH]c1=O
22,13000 nM,Cc1c(Sc2cccc(Cl)c2)n(COCCO)c(=O)[nH]c1=O
23,220 nM,Cc1cc(C)cc(Sc2c(C)c(=O)[nH]c(=S)n2COCCO)c1

row,Structure (SMILES),EC50
1,CCOCn1c(Sc2ccccc2)c(C)c(=O)[nH]c1=O,330 nM
2,COCn1c(Sc2ccccc2)c(C)c(=O)[nH]c1=O,2100 nM
3,CCCCn1c(Sc2ccccc2)c(C)c(=O)[nH]c1=O,1200 nM
4,CCc1c(Sc2ccccc2)n(COCc2ccc(C)cc2)c(=S)[nH]c1=O,78 nM
5,CCc1c(Sc2ccccc2)n(COCc2ccccc2)c(=S)[nH]c1=O,7.8 nM
6,CC(C)c1c(Sc2ccccc2)n(COCc2ccccc2)c(=O)[nH]c1=O,2.7 nM
7,CCOCn1c(Cc2ccccc2)c(C(C)C)c(=O)[nH]c1=O [EMIVIRINE],4.2 nM
8,CC(C)c1c(Cc2ccccc2)n(COCCO)c(=O)[nH]c1=O,63 nM
9,CCOCn1c(Sc2ccccc2)c(CC)c(=O)[nH]c1=O,19 nM
10,CCn1c(Sc2ccccc2)c(C)c(=O)[nH]c1=O,2200 nM
11,CCc1c(Sc2ccccc2)n(COCc2ccccc2)c(=O)[nH]c1=O,5.9 nM
12,CCc1c(Sc2ccccc2)n(COCC2CCCCC2)c(=O)[nH]c1=O,450 nM
13,CCc1c(Sc2ccccc2)n(COCC2CCCCC2)c(=S)[nH]c1=O,350 nM
14,CCc1c(Sc2ccccc2)n(COC2CCCCC2)c(=S)[nH]c1=O,1600 nM
15,COCCOCn1c(Sc2ccccc2)c(C)c(=O)[nH]c1=O,8700 nM
16,Cc1cc(C)cc(Cc2c(C(C)C)c(=O)[nH]c(=O)n2COCCO)c1,2.7 nM
17,CCOCn1c(Sc2ccccc2)c(CC)c(=O)[nH]c1=S,26 nM
18,Cc1c(Sc2ccccc2)n(COCc2ccccc2)c(=O)[nH]c1=O,88 nM
19,CCOCn1c(Sc2ccccc2)c(C2CC2)c(=O)[nH]c1=S,95 nM

row,Structure (SMILES),EC50
1,CCOCn1c(Cc2ccccc2)c(CC)c(=O)[nH]c1=O,41 nM
2,CCc1c(Sc2ccccc2)n(COCc2ccc(Cl)cc2)c(=S)[nH]c1=O,12 nM
3,CCOCn1c(Sc2cc(C)cc(C)c2)c(CC)c(=O)[nH]c1=S,4.4 nM
4,CCc1c(Cc2ccccc2)n(COCCO)c(=O)[nH]c1=O,350 nM
5,CCc1c(Cc2cc(C)cc(C)c2)n(COCCO)c(=O)[nH]c1=O,13 nM
6,CCc1c(Cc2ccccc2)n(CCOC)c(=O)[nH]c1=O,250 nM
7,CCOCn1c(Sc2ccccc2)c(C(C)C)c(=O)[nH]c1=S,14 nM
8,CCc1c(Sc2ccccc2)n(COCCc2ccccc2)c(=O)[nH]c1=O,96 nM
9,CC(C)c1c(Sc2ccccc2)n(COCc2ccccc2)c(=S)[nH]c1=O,6.8 nM
10,CCc1c(Sc2ccccc2)n(CC(C)C)c(=S)[nH]c1=O,220 nM
11,CCc1c(Sc2cc(C)cc(C)c2)n(COCc2ccccc2)c(=S)[nH]c1=O,6.9 nM
12,CCOCn1c(Cc2cc(C)cc(C)c2)c(CC)c(=O)[nH]c1=O,1.6 nM
13,COCCn1c(Cc2ccccc2)c(C(C)C)c(=O)[nH]c1=O,52 nM
14,CCOCn1c(Sc2ccccc2)c(C(C)C)c(=O)[nH]c1=O,12 nM
15,CCCOCn1c(Sc2ccccc2)c(C)c(=O)[nH]c1=O,3600 nM
16,CCOCn1c(Sc2cc(Cl)cc(Cl)c2)c(CC)c(=O)[nH]c1=S,13 nM
17,CCc1c(Sc2cc(C)cc(C)c2)n(COCc2ccccc2)c(=O)[nH]c1=O,3.2 nM
18,CCOCn1c(Sc2cc(Cl)cc(Cl)c2)c(CC)c(=O)[nH]c1=O,7.4 nM
